# Test results reported in patent US11608320B2, “Oxazolidinone hydroxamic acid derivatives” (KUWAIT UNIVERSITY, priority 2020, dated 2023).
# How the values were obtained:
# [1] = test system: antigen-induced airway hyperresponsiveness to methacholine; assay: Allergen-induced airway hyperresponsiveness (AHR) in mouse model of asthma; assay type: in vivo; conditions: 15 or 30 mg/kg s.c., 1 h before and 1 h after each ovalbumin challenge
# Procedure: Inhibition of allergen-induced Airway hyperresponsiveness (AHR) and inflammation in mouse model of asthma; Immunization, challenge and drug treatment: Female mice, as specified above, were immunized intraperitoneally (i.p.) with 10 μg ovalbumin mixed with 0.2 ml of aluminum hydroxide gel (Alu-Gel-S; SERVA Electrophoresis GmbH, Heidelberg, Germany), on day 0 and repeated on day 7. On day 14, after the start of immunization, the animals were challenged intra-nasally, once a day for 4 consecutive days, with 50 μl of 0.06% ovalbumin solution in PBS. Control animals were similarly immunized with PBS and challenged intra-nasally with 50 μl PBS. All intra-nasal administrations were done following light anesthesia with halothane.
# The animals were divided into 5 groups A-E (10-14 animals per group). […]
# Different treatment groups were used for the AHR and cytology/histology studies. Twenty four hours after the last intra-nasal challenge/drug treatment, lung function was measured in some animals while in others bronchoalveolar lavage (BAL), cytology and histology were performed after they were sacrificed with overdose of halothane.
# Measurement of AHR: AHR was measured in individual mice using a Finepoint Series RC site (Buxco Research Systems, Wilmington, N.C., USA), according to the manufacturer's guidelines. […]
# [2] = test system: zymosan-induced peritonitis; assay: Zymosan-induced peritoneal inflammation in mice; assay type: in vivo, mouse; conditions: 30 min before zymosan i.p., peritoneal exudate at 2 h
# Text: Inhibition of zymosan-induced peritoneal inflammation in mice: Female Balb/c mice, 6-8 weeks old, obtained from the Animal Resources Center of the Health Sciences Center, Kuwait University, were used. They were maintained under temperature-controlled conditions with an artificial 12-h light/dark cycle and allowed standard chow and water ad libitum. The study protocol was approved by the “Health Sciences Center Animal Welfare Committee” and complied with the “Guidelines for the Care and Use of Laboratory Animals” of the Health Sciences Centre, Kuwait University. The zymosan-induced peritonitis model-a recognized LT-mediated inflammatory reaction, described particularly in Hanke et al., 2013 ([…]., et al. (2013). Journal of medicinal chemistry, 56(22), 9031-9044) was used. […] After 30 min, all groups were injected intraperitonally with 0.2 ml of activated zymosan (2 mg/ml) except the control group that received 0.2 ml PBS. After 2 h, all animals were killed and the peritoneal exudate was collected by washing the cavity with 3 ml of heparinized (10 IU/ml) PBS.
# [3] = molecular target: T1, recombinant human 5-LO enzyme (Homo sapiens, UniProt P09917); assay: Direct 5-LO inhibitory activity in a cell-free assay (H2DCF-DA fluorescence); assay type: biochemical; conditions: cell-free, recombinant human 5-LO; read-out: Inhibitory Activity IC50, Human recomb. 5-LO
# T1 sequence (P09917 1-674): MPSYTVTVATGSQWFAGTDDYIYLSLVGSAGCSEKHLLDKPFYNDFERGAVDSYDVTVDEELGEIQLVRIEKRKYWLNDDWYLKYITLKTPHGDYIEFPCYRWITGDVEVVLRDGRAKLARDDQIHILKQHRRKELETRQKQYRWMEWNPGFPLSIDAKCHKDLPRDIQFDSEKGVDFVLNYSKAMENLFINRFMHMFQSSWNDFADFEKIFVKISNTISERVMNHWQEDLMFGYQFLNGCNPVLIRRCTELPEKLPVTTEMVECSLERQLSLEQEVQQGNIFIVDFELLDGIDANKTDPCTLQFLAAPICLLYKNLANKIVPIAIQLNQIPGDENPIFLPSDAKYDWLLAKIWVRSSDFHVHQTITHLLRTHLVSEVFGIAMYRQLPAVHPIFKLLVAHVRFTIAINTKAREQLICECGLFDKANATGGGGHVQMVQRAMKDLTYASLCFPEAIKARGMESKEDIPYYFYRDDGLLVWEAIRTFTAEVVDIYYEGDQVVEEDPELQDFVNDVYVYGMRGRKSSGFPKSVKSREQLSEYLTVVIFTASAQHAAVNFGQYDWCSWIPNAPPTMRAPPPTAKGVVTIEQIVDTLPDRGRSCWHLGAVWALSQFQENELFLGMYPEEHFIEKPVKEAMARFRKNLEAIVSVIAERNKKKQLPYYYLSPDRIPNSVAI
# Procedure: H2DCF-DA (60 μM) was first pre-cleaved by incubating with 450 mU/ml recombinant human 5-LO enzyme in Tris buffer (containing 50 mM Tris, pH=7.5, 2 mM EDTA, 2 mM CaCl2), 1 mM dithiothreitol (DTT) and 0.6 U/ml glutathione peroxidase) for 10 min at room temperature. […] After 10 min incubation at room temperature, the reaction was started with the addition of 50 μl of the substrate solution (Tris buffer containing 20 μM ATP and 20 μM arachidonic acid). After a further 20 min, the reaction was terminated with 100 μl acetonitrile. Fluorescence was read at 500 nm excitation and 520 emission, with Novostar® microplate reader (BMG Labtech, Offenburg, Germany). Appropriate controls, including 100 μM nordihydroguaiaretic acid (NDGA), were included to isolate only the 5-LO-attributable, NDGA-inhibitable RFU values.
compound,measurement,setting,value
"CCCCCCCC(=O)N(O)C[C@H]1CN(c2ccc(N3CCOCC3)c(F)c2)C(=O)O1 [PH-251, (R)—N-((3-(3-fluoro-4-morpholinophenyl)-2-oxooxazolidin-5-yl)methyl)-N-hydroxyoctanamide]",melting point,,119 to 122 °C
same,Development of antigen-induced AHR to inhaled methacholine (FIGS. 4A-4B),[1],almost completely abolished the development of AHR
same,Net Exudate Vol,[2]; 3 mg/kg s.c.,0.24 ± 0.05 mL
same,Total Cell No,[2]; 3 mg/kg s.c.,21.1 ± 1.6 ×10^6
same,Total LTC4,[2]; 3 mg/kg s.c.,101.7 ± 20.2 ng
same,Net Exudate Vol,[2]; 10 mg/kg s.c.,0.12 ± 0.08 mL
same,Total Cell No,[2]; 10 mg/kg s.c.,16.4 ±17 ×10^6
same,Total LTC4,[2]; 10 mg/kg s.c.,77.4 ± 16.8 ng
same,Net Exudate Vol,[2]; 30 mg/kg s.c.,0.04 ± 0.02 mL
same,Total Cell No,[2]; 30 mg/kg s.c.,17.6 ± 2.1 ×10^6
same,Total LTC4,[2]; 30 mg/kg s.c.,33.9 ± 4.9 ng
same,IC50,[3],1600 nM
